Assay: molar heat capacity at constant pressure
Settings: 101.33 kPa, Liquid

CC(C)C(C)O (stereo unspecified) [3-methyl-2-butanol]
Settings | molar heat capacity at constant pressure [J/K/mol]
176.36 K | 147.39
176.67 K | 146.37
178.34 K | 147.47
178.66 K | 147.29
180.33 K | 147.95
180.64 K | 148.09
182.33 K | 148.74
182.63 K | 149.07
184.32 K | 149.21
184.61 K | 149.6
186.31 K | 149.62
186.6 K | 150.32
188.3 K | 149.99
188.59 K | 150.72
190.3 K | 150.82
190.58 K | 151.56
192.29 K | 151.37
192.57 K | 152.24
194.28 K | 152
194.56 K | 152.93
196.27 K | 152.73
196.55 K | 153.74
198.26 K | 153.78
198.54 K | 154.39
200.25 K | 154.7
200.53 K | 155.32
202.24 K | 155.43
202.51 K | 156.2
204.23 K | 156.17
204.5 K | 157.11
206.21 K | 156.91
206.48 K | 158.08
208.2 K | 157.81
208.47 K | 159.14
210.18 K | 158.87
210.46 K | 160.17
212.17 K | 159.83
214.15 K | 160.86
216.12 K | 161.85
218.08 K | 163.18
220.04 K | 164.39
221.99 K | 165.9
223.93 K | 167.49
225.86 K | 168.89
227.79 K | 170.77
229.71 K | 172.05
231.62 K | 173.69
233.53 K | 175.59
235.43 K | 177.3
237.32 K | 178.86
239.2 K | 180.5
241.08 K | 182.29
242.96 K | 184.02
244.82 K | 185.3
246.68 K | 187.07
248.53 K | 188.6
250.37 K | 190.8
252.21 K | 192.67
254.03 K | 194.25
255.85 K | 196.29
257.67 K | 198.36
259.47 K | 200.36
261.27 K | 202.49
263.06 K | 204.59
264.84 K | 206.44
266.62 K | 208.79
268.39 K | 210.85
270.15 K | 212.97
271.91 K | 215.09
273.66 K | 217.48
275.41 K | 219.86
277.14 K | 222.01
278.87 K | 224.26
280.6 K | 226.68
282.31 K | 228.97
284.02 K | 230.98
285.72 K | 233.15
287.42 K | 234.9
289.11 K | 237.64
290.79 K | 239.38
292.47 K | 241.39
294.15 K | 243.38
295.81 K | 245.77
297.47 K | 247.45
299.13 K | 249.65
300.78 K | 250.94

Reference: the NIST ThermoML archive (doi:10.1021/je060411g)
